This note sets out measurements from paper PMC8344761 (Journal of Enzyme Inhibition and Medicinal Chemistry, 2021).

One data set concerns the target T1, VEGFR-2 tyrosine kinase (Homo sapiens, UniProt P35968).
T1 construct: purchased Promega
In words: VEGFR-2 (KDR) kinase assay (ADP-glow). The class given is biochemical. The following applies: fixed concentration 1 µM; read-out: inhibitory activity against VEGFR-2 tyrosine kinase.

The next data set deals with B-Raf (V600E) (Homo sapiens, UniProt P15056, V600E). In words: Raf kinase assay (Kinase HotSpot, Reaction Biology Corp.). Type of data set: biochemical. As for the experimental part:
(§1) Compounds were delivered into each Raf reaction, followed ∼20 min later by addition of a mixture of ATP and [γ-^33P-ATP] (specific activity approx. 500 cpm/pmol, concentration as required) to a final concentration of 10 µM. After incubation for 40 min at 25 °C, the reaction was stopped by the addition of a 3% phosphoric acid solution. Then, the reaction was spotted onto a P30 filtermat, and unbound phosphate was removed by washing three times for 5 min in 75 mM phosphoric acid and once in methanol prior to drying and scintillation counting. […] IC50 values and curve fits were obtained using Prism (GraphPad Software, La Jolla, CA).

The next data set deals with B-Raf (Homo sapiens, UniProt P15056). The data set is described as above. The class given is biochemical. As for the experimental part:
as §1

The next data set concerns the target C-Raf (Homo sapiens, UniProt P04049). Described as above. The class given is biochemical. As for the experimental part: as §1
The test system of a further data set is Hep3B cells. In words: Sphere formation assay. The class given is cell-based. The following applies: Homo sapiens, 48 h drug treatment, 13 days culture, read-out: % Inhibition of sphere forming Hep3B. As for the experimental part: (§2) Sphere forming ability of Hep3B and Huh7 cells were examined after incubation with drugs for 48 h. Briefly, 3 × 10^3 cells which were pre-treated with or without drugs in prEGM media (Lonza, Basel, Switzerland) were seeded on an ultra-low adhering 24 well plate (Corning Incorporated Costar, Corning, NY). Twice a week, 500 µL of used medium was replaced with fresh prEGM media. At 13 days after plating, images of spheres were captured using Celloger Mini (Curiosis Inc., Seoul, South Korea). The number of spheroids over 50 µm in diameter was counted by using Image J software (National Institute of Health, Bethesda, MD).

A further data set has as its system Huh7 cells. In words: Sphere formation assay. The class given is cell-based. The following applies: Homo sapiens, Huh-7, 48 h drug treatment, 13 days culture, read-out: % Inhibition of sphere forming Huh7. As for the experimental part:
as §2

A further data set deals with HepG2. In words: Cell proliferation assay (MTT). The class given is cell-based. The note with it: Homo sapiens, 48 h, mean ± SEM of three independent experiments, read-out: Cancer cell proliferation IC50 HepG2. As for the experimental part:
(§3) Hepatocellular carcinoma cell lines (HepG2, Huh7), human pancreatic ductal epithelial cell line (H6c7), and normal human colon cell line (CCD841) were obtained from the American Type Culture Collection (ATCC) (Manassas, VA, USA). Cells were cultured in DMEM/High Glucose media (Hep3B, Huh7, CCD841) or MEM/EBSS media (HepG2) containing 10% FBS, 100 IU/ml of penicillin and 100 µg/ml of streptomycin. H6c7 cells were cultured in keratinocyte serum free media supplemented with epidermal growth factor and bovine pituitary extract. Cells were maintained in 5% CO2 humidified atmosphere at 37 °C.
(§4) Cells were seeded in a 96-well plate and allowed to adhere for 24 h. The cells were serum starved in 1% serum containing medium for 12 h, and then treated with drugs in 10% serum-containing medium. After incubation for 48 h, cell proliferation was measured using MTT assay. Optical density was measured at 540 nm using a Spectrostar Nano microplate reader (BMG LABTECH GmbH, Ortenberg, Germany).

In the next data set the test system is Hep3B. In words: Cell proliferation assay (MTT). Type of data set: cell-based. The note with it: Homo sapiens, 48 h, mean ± SEM of three independent experiments, read-out: Cancer cell proliferation IC50 Hep3B. As for the experimental part:
as §3, §4

The next data set relates to Huh7. In words: Cell proliferation assay (MTT). The class given is cell-based. The note with it: Homo sapiens, Huh-7, 48 h, mean ± SEM of three independent experiments, read-out: Cancer cell proliferation IC50 Huh7. As for the experimental part:
as §3, §4

Data set [1] can be described thus: Cytotoxicity assay (MTT), normal cells. The class given is cell-based, human. The following applies: human, mean ± SEM. As for the experimental part: as §3
Cells were seeded in a 96-well plate and allowed to adhere for 24 h. Cells in low serum (1%)-containing medium were treated with drugs for 48 h. In case of H6c7 cells, cells in keratinocyte serum free media were treated with drugs for 48 h. Then, cell viability was measured using MTT assay. Optical density was measured at 540 nm using a Spectrostar Nano microplate reader (BMG LABTECH).

A further data set concerns the target T2, A-Raf (Homo sapiens, UniProt P10398).
T2 sequence (P10398 1-606): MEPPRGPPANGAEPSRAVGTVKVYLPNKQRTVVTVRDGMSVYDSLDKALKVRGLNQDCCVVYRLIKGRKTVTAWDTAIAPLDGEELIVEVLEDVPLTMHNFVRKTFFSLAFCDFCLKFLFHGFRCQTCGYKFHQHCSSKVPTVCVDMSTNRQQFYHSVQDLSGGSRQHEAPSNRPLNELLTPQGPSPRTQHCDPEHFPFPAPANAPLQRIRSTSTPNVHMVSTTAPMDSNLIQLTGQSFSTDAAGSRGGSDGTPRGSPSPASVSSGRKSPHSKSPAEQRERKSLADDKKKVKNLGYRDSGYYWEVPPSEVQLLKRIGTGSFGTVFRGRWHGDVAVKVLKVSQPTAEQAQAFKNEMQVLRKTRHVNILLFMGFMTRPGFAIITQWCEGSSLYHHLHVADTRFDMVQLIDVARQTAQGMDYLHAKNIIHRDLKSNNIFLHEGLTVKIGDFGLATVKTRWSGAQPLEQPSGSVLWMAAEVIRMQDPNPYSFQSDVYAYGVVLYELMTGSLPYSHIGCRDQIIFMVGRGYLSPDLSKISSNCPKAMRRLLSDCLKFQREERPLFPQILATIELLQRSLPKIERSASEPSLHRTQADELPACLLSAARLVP
In words: Raf kinase assay (Kinase HotSpot, Reaction Biology Corp.). The class given is biochemical. As for the experimental part: Compounds were delivered into each Raf reaction, followed ∼20 min later by addition of a mixture of ATP and [γ-^33P-ATP] (specific activity approx. 500 cpm/pmol, concentration as required) to a final concentration of 10 µM. […] Then, the reaction was spotted onto a P30 filtermat, and unbound phosphate was removed by washing three times for 5 min in 75 mM phosphoric acid and once in methanol prior to drying and scintillation counting. […] IC50 values and curve fits were obtained using Prism (GraphPad Software, La Jolla, CA).

[2] abbreviates: fixed concentration 1 μM, mean of two independent experiments.
Setting [3] is: fixed concentration 1 μM, mean of two independent experiments, 1 µM.

Sequence of B-Raf (P15056 whole entry): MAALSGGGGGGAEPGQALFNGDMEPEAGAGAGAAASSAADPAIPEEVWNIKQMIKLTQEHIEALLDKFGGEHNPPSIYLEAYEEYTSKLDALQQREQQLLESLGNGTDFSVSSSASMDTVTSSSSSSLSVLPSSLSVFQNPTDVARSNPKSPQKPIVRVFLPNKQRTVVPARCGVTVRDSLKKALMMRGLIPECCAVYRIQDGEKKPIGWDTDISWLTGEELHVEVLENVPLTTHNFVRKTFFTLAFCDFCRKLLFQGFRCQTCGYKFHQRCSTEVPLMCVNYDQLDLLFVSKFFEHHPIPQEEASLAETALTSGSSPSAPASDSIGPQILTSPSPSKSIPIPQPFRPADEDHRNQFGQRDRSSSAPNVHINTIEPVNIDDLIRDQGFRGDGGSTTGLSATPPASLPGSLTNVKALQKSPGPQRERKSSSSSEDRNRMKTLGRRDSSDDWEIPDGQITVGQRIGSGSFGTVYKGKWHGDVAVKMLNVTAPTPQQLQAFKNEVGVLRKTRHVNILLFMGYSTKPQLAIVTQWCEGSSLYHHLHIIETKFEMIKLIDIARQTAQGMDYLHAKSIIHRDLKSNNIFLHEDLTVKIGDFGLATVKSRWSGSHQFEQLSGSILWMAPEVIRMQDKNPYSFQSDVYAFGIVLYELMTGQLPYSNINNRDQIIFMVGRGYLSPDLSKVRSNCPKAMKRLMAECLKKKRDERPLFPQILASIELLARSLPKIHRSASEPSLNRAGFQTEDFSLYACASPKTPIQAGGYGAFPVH
Sequence of C-Raf (P04049 whole entry): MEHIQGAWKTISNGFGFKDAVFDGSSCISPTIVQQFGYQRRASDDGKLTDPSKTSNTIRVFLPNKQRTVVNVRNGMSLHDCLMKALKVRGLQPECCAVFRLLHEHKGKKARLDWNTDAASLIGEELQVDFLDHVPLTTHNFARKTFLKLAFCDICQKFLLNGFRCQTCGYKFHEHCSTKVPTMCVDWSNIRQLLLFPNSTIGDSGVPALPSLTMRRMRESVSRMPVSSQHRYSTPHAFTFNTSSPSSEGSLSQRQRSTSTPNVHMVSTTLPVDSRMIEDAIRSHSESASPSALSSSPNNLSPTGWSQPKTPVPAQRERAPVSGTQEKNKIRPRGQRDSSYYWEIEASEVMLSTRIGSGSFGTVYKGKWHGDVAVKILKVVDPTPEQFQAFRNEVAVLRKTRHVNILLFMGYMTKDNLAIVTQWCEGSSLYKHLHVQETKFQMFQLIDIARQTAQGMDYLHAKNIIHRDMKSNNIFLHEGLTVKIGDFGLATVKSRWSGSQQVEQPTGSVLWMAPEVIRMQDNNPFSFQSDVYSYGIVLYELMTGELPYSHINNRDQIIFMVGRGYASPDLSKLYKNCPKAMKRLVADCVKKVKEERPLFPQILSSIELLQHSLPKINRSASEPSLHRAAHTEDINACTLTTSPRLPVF
Sequence of B-Raf (V600E) (P15056 whole entry V600E): as the sequence (P15056 whole entry) above, with V600E counted along it
T1 sequence (P35968 20-1356): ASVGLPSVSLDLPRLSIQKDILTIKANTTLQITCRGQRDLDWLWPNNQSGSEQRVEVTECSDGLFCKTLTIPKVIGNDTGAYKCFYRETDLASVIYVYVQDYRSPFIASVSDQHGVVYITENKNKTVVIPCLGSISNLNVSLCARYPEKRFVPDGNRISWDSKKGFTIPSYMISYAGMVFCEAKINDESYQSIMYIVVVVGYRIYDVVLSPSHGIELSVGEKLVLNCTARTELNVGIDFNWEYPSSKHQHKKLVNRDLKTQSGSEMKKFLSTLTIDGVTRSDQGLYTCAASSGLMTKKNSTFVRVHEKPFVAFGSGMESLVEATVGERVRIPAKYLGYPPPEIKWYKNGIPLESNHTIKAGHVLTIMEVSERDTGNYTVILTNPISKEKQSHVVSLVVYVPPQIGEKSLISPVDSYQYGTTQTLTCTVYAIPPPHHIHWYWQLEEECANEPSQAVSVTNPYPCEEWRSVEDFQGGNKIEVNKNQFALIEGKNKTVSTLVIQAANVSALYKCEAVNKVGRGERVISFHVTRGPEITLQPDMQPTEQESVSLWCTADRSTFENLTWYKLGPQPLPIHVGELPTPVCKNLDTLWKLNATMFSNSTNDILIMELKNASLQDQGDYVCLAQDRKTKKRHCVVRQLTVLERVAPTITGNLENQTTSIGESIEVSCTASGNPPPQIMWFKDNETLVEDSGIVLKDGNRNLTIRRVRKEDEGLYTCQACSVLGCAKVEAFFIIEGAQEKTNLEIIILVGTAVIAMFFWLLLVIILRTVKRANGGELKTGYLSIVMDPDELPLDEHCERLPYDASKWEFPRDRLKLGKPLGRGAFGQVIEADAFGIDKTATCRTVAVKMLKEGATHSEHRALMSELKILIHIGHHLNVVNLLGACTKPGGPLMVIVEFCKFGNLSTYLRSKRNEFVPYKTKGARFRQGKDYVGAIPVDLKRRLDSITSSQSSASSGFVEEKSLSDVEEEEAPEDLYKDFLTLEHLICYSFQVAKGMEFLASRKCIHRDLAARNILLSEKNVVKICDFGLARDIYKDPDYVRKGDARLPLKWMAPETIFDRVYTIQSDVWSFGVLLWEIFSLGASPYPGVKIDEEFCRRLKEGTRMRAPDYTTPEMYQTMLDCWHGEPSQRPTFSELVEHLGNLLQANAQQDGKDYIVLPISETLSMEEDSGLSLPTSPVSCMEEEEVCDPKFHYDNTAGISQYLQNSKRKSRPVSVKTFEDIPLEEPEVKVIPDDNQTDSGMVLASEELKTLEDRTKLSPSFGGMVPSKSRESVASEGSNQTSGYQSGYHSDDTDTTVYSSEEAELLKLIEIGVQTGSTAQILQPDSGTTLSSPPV
Experimental for VEGFR-2 tyrosine kinase: The VEGFR-2 (KDR) kinase assay was performed with a KDR (Promega, WI, USA) kinase enzyme system using the ADP-glow kinase assay kit (Promega) in accordance with the manufacturer's instructions. […] The reaction was carried out at 25 °C for 1 h in a total volume of 25 µl. Subsequently, 25 µl of ADP-Glow reagent was added to the mixture, and then incubated for 40 min at 25 °C. After the addition of 50 µl of ADP detection reagents for 30 min at 25 °C, luminescence was measured using a Fluostar Omega microplate reader (BMG LABTECH GmbH, Ortenberg, Germany).

With `CNC(=O)c1cc(Oc2c(C)nc(NC(=O)Nc3ccc(Cl)c(C(F)(F)F)c3)c(C)c2C)ccn1` [Compound 4, 4-((6–(3-(4-Chloro-3-(trifluoromethyl)phenyl)ureido)-2,4,5-trimethylpyridin-3-yl)oxy)-N-methylpicolinamide], the melting point (usually the temperature, or range, at which the solid turns liquid) came out at 265 °C. In addition, the inhibition at 1 µM at VEGFR-2 tyrosine kinase is ~32%. On B-Raf (V600E) (fixed concentration 1 μM, mean of two independent experiments, B-Raf (V599E)), this molecule came in with an inhibition at 1 µM of 56.1%. Besides, at B-Raf (V600E) (mean ± SD of two independent experiments, read-out: In vitro Raf kinase inhibition IC50 B-Raf(V600E)), the IC50 amounted to 0.65 ± 0.0023 µM. The molecule further returned an inhibition at 1 µM against B-Raf (setting [2]) of 11.6%. For the same molecule, the “Inhibition (%) B-Raf” value at B-Raf (setting [3]) is listed as 12%. Besides, the IC50 on B-Raf (mean ± SD of two independent experiments, read-out: In vitro Raf kinase inhibition IC50 B-Raf) stood at 5.86 µM. For the same molecule, the “Inhibition (%) C-Raf” value on C-Raf (setting [3]) is 84%. Also, the inhibition at 1 µM at C-Raf (fixed concentration 1 μM, mean of two independent experiments, read-out: Inhibition (%) C-Raf) is 84.3%. Further, the IC50 at C-Raf (mean ± SD of two independent experiments, read-out: In vitro Raf kinase inhibition IC50 C-Raf) was found to be 0.08 ± 0.0081 µM. In the data set on Hep3B cells (1 μM), the inhibition at 1 µM was 30.8%. Besides, in the data set on Hep3B cells (10 μM), the inhibition at 10 µM worked out at 50.6%. Besides, the inhibition at 1 µM in the data set on Huh7 cells (1 μM) worked out at 31.6%. Also, in the data set with Huh7 cells (10 μM), the inhibition at 10 µM was 50.5%. In the data set on HepG2, the IC50 was determined as 6.98 ± 0.08 µM. Moreover, in the data set with Hep3B, the IC50 is 6.23 ± 0.07 µM. Besides, the IC50 with Huh7 came to 5.29 ± 0.11 µM. For the same molecule, the CC50 (commonly the concentration that lowers cell viability or growth by half) at 48 h in data set [1] (CCD841 cells (normal colon epithelial cell line)) is > 10 µM. Also, in data set [1] (H6c7 cells (normal pancreatic ductal epithelial cell line)), the CC50 at 48 h was > 10 µM. Further, the inhibition at 1 µM on A-Raf (setting [2]) amounted to 56%. The IC50 on A-Raf (mean ± SD of two independent experiments, read-out: In vitro Raf kinase inhibition IC50 A-Raf) came to 0.312 ± 0.0259 µM.
